Measurements from BigSolDB 2.1.

Compound: COC(=O)C1=C(C)NC(C)=C(C(=O)OCC(C)C)C1c1ccccc1[N+](=O)[O-] (stereo not given)
- solubility (mole fraction) (in acetonitrile, 278.15 K): 0.00849
- solubility (mole fraction) (in acetonitrile, 283.15 K): 0.0102
- solubility (mole fraction) (in acetonitrile, 288.15 K): 0.012
- solubility (mole fraction) (in acetonitrile, 293.15 K): 0.0144
- solubility (mole fraction) (in acetonitrile, 298.15 K): 0.0169
- solubility (mole fraction) (in acetonitrile, 303.15 K): 0.0197
- solubility (mole fraction) (in acetonitrile, 308.15 K): 0.0232
- solubility (mole fraction) (in acetonitrile, 313.15 K): 0.0271
- solubility (mole fraction) (in acetonitrile, 318.15 K): 0.0317
- solubility (mole fraction) (in cyclohexane, 283.15 K): 5.7e-05
- solubility (mole fraction) (in cyclohexane, 288.15 K): 7.3e-05
- solubility (mole fraction) (in cyclohexane, 293.15 K): 9.1e-05
- solubility (mole fraction) (in cyclohexane, 298.15 K): 0.000111
- solubility (mole fraction) (in cyclohexane, 303.15 K): 0.000137
- solubility (mole fraction) (in cyclohexane, 308.15 K): 0.000164
- solubility (mole fraction) (in cyclohexane, 313.15 K): 0.000198
- solubility (mole fraction) (in cyclohexane, 318.15 K): 0.000237
- solubility (mole fraction) (in ethanol, 278.15 K): 0.00278
- solubility (mole fraction) (in ethanol, 283.15 K): 0.00348
- solubility (mole fraction) (in ethanol, 288.15 K): 0.0043
- solubility (mole fraction) (in ethanol, 293.15 K): 0.00529
- solubility (mole fraction) (in ethanol, 298.15 K): 0.00648
- solubility (mole fraction) (in ethanol, 303.15 K): 0.00789
- solubility (mole fraction) (in ethanol, 308.15 K): 0.00935
- solubility (mole fraction) (in ethanol, 313.15 K): 0.0112
- solubility (mole fraction) (in ethanol, 318.15 K): 0.0134
- solubility (mole fraction) (in ethyl acetate, 278.15 K): 0.0166
- solubility (mole fraction) (in ethyl acetate, 283.15 K): 0.0188
- solubility (mole fraction) (in ethyl acetate, 288.15 K): 0.0215
- solubility (mole fraction) (in ethyl acetate, 293.15 K): 0.0246
- solubility (mole fraction) (in ethyl acetate, 298.15 K): 0.0278
- solubility (mole fraction) (in ethyl acetate, 303.15 K): 0.0316
- solubility (mole fraction) (in ethyl acetate, 308.15 K): 0.0358
- solubility (mole fraction) (in ethyl acetate, 313.15 K): 0.0401
- solubility (mole fraction) (in ethyl acetate, 318.15 K): 0.0457
- solubility (mole fraction) (in isopropanol, 278.15 K): 0.00467
- solubility (mole fraction) (in isopropanol, 283.15 K): 0.00563
- solubility (mole fraction) (in isopropanol, 288.15 K): 0.00669
- solubility (mole fraction) (in isopropanol, 293.15 K): 0.00796
- solubility (mole fraction) (in isopropanol, 298.15 K): 0.00935
- solubility (mole fraction) (in isopropanol, 303.15 K): 0.011
- solubility (mole fraction) (in isopropanol, 308.15 K): 0.0129
- solubility (mole fraction) (in isopropanol, 313.15 K): 0.0152
- solubility (mole fraction) (in isopropanol, 318.15 K): 0.0178
- solubility (mole fraction) (in n-butanol, 278.15 K): 0.00573
- solubility (mole fraction) (in n-butanol, 283.15 K): 0.00671
- solubility (mole fraction) (in n-butanol, 288.15 K): 0.00795
- solubility (mole fraction) (in n-butanol, 293.15 K): 0.00938
- solubility (mole fraction) (in n-butanol, 298.15 K): 0.0111
- solubility (mole fraction) (in n-butanol, 303.15 K): 0.0129
- solubility (mole fraction) (in n-butanol, 308.15 K): 0.0149
- solubility (mole fraction) (in n-butanol, 313.15 K): 0.0173
- solubility (mole fraction) (in n-butanol, 318.15 K): 0.0202
- solubility (mole fraction) (in n-propanol, 278.15 K): 0.00378
- solubility (mole fraction) (in n-propanol, 283.15 K): 0.00455
- solubility (mole fraction) (in n-propanol, 288.15 K): 0.00545
- solubility (mole fraction) (in n-propanol, 293.15 K): 0.00657
- solubility (mole fraction) (in n-propanol, 298.15 K): 0.0078
- solubility (mole fraction) (in n-propanol, 303.15 K): 0.00941
- solubility (mole fraction) (in n-propanol, 308.15 K): 0.0111
- solubility (mole fraction) (in n-propanol, 313.15 K): 0.013
- solubility (mole fraction) (in n-propanol, 318.15 K): 0.0155
- solubility (mole fraction) (in toluene, 278.15 K): 0.00154
- solubility (mole fraction) (in toluene, 283.15 K): 0.00183
- solubility (mole fraction) (in toluene, 288.15 K): 0.00218
- solubility (mole fraction) (in toluene, 293.15 K): 0.0026
- solubility (mole fraction) (in toluene, 298.15 K): 0.00309
- solubility (mole fraction) (in toluene, 303.15 K): 0.00366
- solubility (mole fraction) (in toluene, 308.15 K): 0.00428
- solubility (mole fraction) (in toluene, 313.15 K): 0.005
- solubility (mole fraction) (in toluene, 318.15 K): 0.00588
- solubility (mole fraction) (in water, 278.15 K): 4e-06
- solubility (mole fraction) (in water, 283.15 K): 5e-06
- solubility (mole fraction) (in water, 288.15 K): 7e-06
- solubility (mole fraction) (in water, 293.15 K): 9e-06
- solubility (mole fraction) (in water, 298.15 K): 1.2e-05
- solubility (mole fraction) (in water, 303.15 K): 1.5e-05
- solubility (mole fraction) (in water, 308.15 K): 1.9e-05
- solubility (mole fraction) (in water, 313.15 K): 2.4e-05
- solubility (mole fraction) (in water, 318.15 K): 3e-05
